Experimental data: patent publication US10709704B2, “Treating neural disease with tyrosine kinase inhibitors” (GEORGETOWN UNIVERSITY, priority 2012, dated 2020)

System: GFP-tagged TDP-43
Assay: Distribution of GFP-tagged TDP-43 in M17 cells
Format: cell-based, human
Design: distribution of GFP-tagged TDP-43 / translocation of GFP-tagged TDP-43 with Nilotinib or Bosutinib: unit of the concentration uncertain
Procedure: Human neuroblastoma M17 cells (seeding density 2×10^5 cells) were grown in 24 well dishes (Falcon) to 70% confluence in Dulbecco's Modified Eagle Medium (DMEM; Invitrogen) plus 10% (v/v) heat-inactivated fetal bovine serum (Invitrogen), penicillin/streptomycin, and 2 mM L-glutamine at 37° C. and 5% CO2, washed twice in phosphate-buffered saline (PBS). Transient transfection was performed with 3 μg parkin cDNA or 3 μg TDP-43 cDNA, or 3 μg LacZ cDNA. Cells were treated with 5 μM tubacin for 24 hours and DAPI stained in 12 well dishes. Cells were harvested 24 hours after transfection. Transfection was performed in DMEM without serum using Lipofectamine 2000 (Invitrogen) according to the manufacturer's protocol. […] Western blot was performed on NuPAGE 4-12% Bis-Tris gel (Invitrogen). Protein estimation was performed using the microscale BioRad protein assay (BioRad Laboratories Inc, Hercules, Calif., USA).
To ascertain that both parkin and HDAC6 are required for TDP-43 translocation, GFP-tagged TDP-43 was expressed in M17 neuroblastoma cells in the presence of wild type or loss-of-function mutant (T240R) parkin, and treated with 5 μM selective HDAC6 inhibitor for 24 hours.
The following data support these conclusions.

O=C(CCCCCCC(=O)Nc1ccc([C@H]2O[C@@H](CSc3nc(-c4ccccc4)c(-c4ccccc4)o3)C[C@@H](c3ccc(CO)cc3)O2)cc1)NO [Tubacin]
GFP fluorescence (GFP-TDP-43) in the cytosol (5 μM for 24 hours, presence or absence of parkin): did not lead to GFP fluorescence in the cytosol | translocation of GFP-tagged TDP-43 with Nilotinib or Bosutinib (Tubacin (5 µM) for additional 24 hrs): impairs translocation
